Data taken from patent US20220041616A1, “SPIRO COMPOUND AND MEDICAL USES THEREOF” (The National Institutes of Pharmaceutical R&D Co., Ltd., priority 2018, published 2022).

Molecular target: T1, ACC1 (Homo sapiens, UniProt Q13085)
T1 construct: purchased BPS bioscience
Assay: In vitro inhibition of ACC1 activity, ADP-Glo Kinase Analysis
Assay type: biochemical
Details: 1 nM ACC1, 10 μM acetyl-CoA, 20 μM ATP
Procedure, shortened: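 Enzyme was preincubated with compound for 15 min, then reacted for 30 min at room temperature in 5% DMSO, with ADP measured by ADP-Glo luminescence. ACC1: 1 nM, with 10 μM acetyl-CoA, 30 mM NaHCO3 and 20 μM ATP. ACC2: 1.1 nM, with 20 μM acetyl-CoA, 20 mM NaHCO3 and 15 μM ATP.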

SMILES | IC50 [nM]
COc1ccccc1C(CN1C(=O)C2(CCC(C(=O)O)C2)C(=O)c2c1sc(-c1ncco1)c2C)OC1CCOCC1 (mixture of isomers) [Compound 5x, 7′-(2-(2-methoxyphenyl)-2-((tetrahydro-2H-pyran-4-yl)oxy)ethyl)-3′-methyl-2′-(oxazol-2-yl)-4′,6′-dioxo-6′,7′-dihydro-4′H-spiro[cyclopentane-1,5′-thieno[2,3-b]pyridine]-3-carboxylic Acid] | < 10
COc1ccccc1C(CN1C(=O)C2(CCC(C(=O)O)C2)C(=O)c2c1sc(-c1ncco1)c2C)OC1CCOCC1 (mixture of isomers) [Compound 5y, 7′-(2-(2-methoxyphenyl)-2-((tetrahydro-2H-pyran-4-yl)oxy)ethyl)-3′-methyl-2′-(oxazol-2-yl)-4′,6′-dioxo-6′,7′-dihydro-4′H-spiro[cyclopentane-1,5′-thieno[2,3-b]pyridine]-3-carboxylic Acid] | < 10
COc1ccccc1C(CN1C(=O)C2(CC(C(=O)O)C2)C(=O)c2c1sc(-c1ncco1)c2C)OC1CCOCC1 (mixture of isomers) [Compound 8, 7′-(2-(2-methoxyphenyl)-2-((tetrahydro-2H-pyran-4-yl)oxy)ethyl)-3′-methyl-2′-(oxazol-2-yl)-4′,6′-dioxo-6′,7′-dihydro-4′H-spiro[cyclobutane-1,5′-thieno[2,3-b]pyridine]-3-carboxylic Acid] | < 10

The remaining lines, values ahead:

IC50 [nM] | SMILES
< 10 | COc1ccccc1C(CN1C(=O)C2(CCC(C(=O)O)C2)C(=O)c2c1sc(-c1ncco1)c2C)OC1CCOCC1 (single isomer, unassigned) [Compound 5b, 7′-(2-(2-methoxyphenyl)-2-((tetrahydro-2H-pyran-4-yl)oxy)ethyl)-3′-methyl-2′-(oxazol-2-yl)-4′,6′-dioxo-6′,7′-dihydro-4′H-spiro[cyclopentane-1,5′-thieno[2,3-b]pyridine]-3-carboxylic Acid]
< 10 | COc1ccccc1C(CN1C(=O)C2(CC(C(=O)O)C2)C(=O)c2c1sc(-c1ncco1)c2C)OC1CCOCC1 (single isomer, unassigned) [Compound 8d, 7′-(2-(2-methoxyphenyl)-2-((tetrahydro-2H-pyran-4-yl)oxy)ethyl)-3′-methyl-2′-(oxazol-2-yl)-4′,6′-dioxo-6′,7′-dihydro-4′H-spiro[cyclobutane-1,5′-thieno[2,3-b]pyridine]-3-carboxylic Acid]
< 10 | COc1ccccc1[C@H](CN1c2sc(-c3ncco3)c(C)c2C(=O)[C@]2(C[C@H](C(=O)O)C2)C1=O)OC1CCOCC1 [Compound 8c, 7′-(2-(2-methoxyphenyl)-2-((tetrahydro-2H-pyran-4-yl)oxy)ethyl)-3′-methyl-2′-(oxazol-2-yl)-4′,6′-dioxo-6′,7′-dihydro-4′H-spiro[cyclobutane-1,5′-thieno[2,3-b]pyridine]-3-carboxylic Acid]
